Data from US11325938B2, “CD73 inhibitors” (ORIC Pharmaceuticals, Inc., priority 2018, dated 2022).
pIC50: −log10 of the molar value.

What follows are compounds tested against CD73 (Homo sapiens (Human), UniProt P21589) (assay: Biochemical assay: inhibition of CD73 activity (AMP hydrolysis, Malachite Green readout)). Conditions: CD73 0.3208 nM, AMP 15 μM, 25 mM Tris-HCl pH 7.4, RT, absorbance 620 nm.
Summary of the method: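 Phosphate from AMP hydrolysis (15 μM AMP, 10 min, RT) was detected by Malachite Green absorbance to give IC50s. Enzyme at 320 pM was first exposed 15 min to compounds, dosed from 100 μM in ½-log steps, in Tris pH 7.4 buffer with MgCl2, Brij-35 and BSA.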

CD73, sequence (P21589 27-574): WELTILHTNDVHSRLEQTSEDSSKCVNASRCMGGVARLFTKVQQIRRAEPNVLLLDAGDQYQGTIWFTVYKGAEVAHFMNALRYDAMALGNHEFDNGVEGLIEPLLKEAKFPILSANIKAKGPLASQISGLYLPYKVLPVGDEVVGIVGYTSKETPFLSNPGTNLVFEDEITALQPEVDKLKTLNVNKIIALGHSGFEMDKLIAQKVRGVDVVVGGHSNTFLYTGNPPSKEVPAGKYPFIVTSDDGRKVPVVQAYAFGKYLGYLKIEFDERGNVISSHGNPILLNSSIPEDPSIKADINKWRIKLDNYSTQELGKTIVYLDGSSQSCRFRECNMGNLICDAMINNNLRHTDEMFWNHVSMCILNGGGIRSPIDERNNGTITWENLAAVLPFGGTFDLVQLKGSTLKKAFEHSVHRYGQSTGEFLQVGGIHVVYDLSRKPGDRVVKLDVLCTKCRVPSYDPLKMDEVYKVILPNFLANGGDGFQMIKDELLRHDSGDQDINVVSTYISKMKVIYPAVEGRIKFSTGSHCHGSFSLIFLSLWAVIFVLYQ

Row | pIC50 | SMILES
1 | ≥ 7.00 | C[C@@H]1CCC[C@@H]1Nc1nc(Cl)nc2c1cnn2[C@@H]1O[C@H](COC(CO)(CO)P(=O)(O)O)[C@@H](O)[C@H]1O (racemic) [Example 228, rac-(2-(((2R,3S,4R,5R)-5-(6-chloro-4-(((1S,2R)-2-methylcyclopentyl)amino)-1H-pyrazolo[3,4-d]pyrimidin-1-yl)-3,4-dihydroxytetrahydrofuran-2-yl)methoxy)-1,3-dihydroxypropan-2-yl)phosphonic acid]
2 | ≥ 7.00 | O=P(O)(O)C(CO)(Cc1nc[nH]n1)OC[C@H]1O[C@@H](n2ncc3c(NC4CCCC4)nc(Cl)nc32)[C@H](O)[C@@H]1O (mixture of isomers) [Example 219, rac-(2-(((2R,3S,4R,5R)-5-(6-chloro-4-(cyclopentylamino)-1H-pyrazolo[3,4-d]pyrimidin-1-yl)-3,4-dihydroxytetrahydrofuran-2-yl)methoxy)-1-hydroxy-3-(1H-1,2,4-triazol-3-yl)propan-2-yl)phosphonic acid]
3 | ≥ 7.00 | C[C@](CO)(OC[C@H]1O[C@@H](n2ncc3c(N[C@@H]4CC[C@H]5CCC[C@H]54)nc(Cl)nc32)[C@H](O)[C@@H]1O)P(=O)(O)O (racemic) [Example 173, rac-((R)-2-(((2S,3R,4S,5S)-5-(6-chloro-4-(((1S,3aS,6aS)-octahydropentalen-1-yl)amino)-1H-pyrazolo[3,4-d]pyrimidin-1-yl)-3,4-dihydroxytetrahydrofuran-2-yl)methoxy)-1-hydroxypropan-2-yl)phosphonic acid]
4 | ≥ 7.00 | COCC(CC(=O)O)(OC[C@H]1O[C@@H](n2ncc3c(NC4CCCC4)nc(Cl)nc32)[C@H](O)[C@@H]1O)P(=O)(O)O (mixture of isomers) [Example 210, rac-3-(((2R,3S,4R,5R)-5-(6-chloro-4-(cyclopentyalmino)-1H-pyrazolo[3,4-d]pyrimidin-1-yl)-3,4-dihydroxytetrahydrofuran-2-yl)methoxy)-4-methoxy-3-phosphonobutanoic acid]
5 | ≥ 7.00 | C[C@@H](O)COc1nc(NC2CCCC2)c2cnn([C@@H]3O[C@H](CO[C@@](C)(CO)P(=O)(O)O)[C@@H](O)[C@H]3O)c2n1 (racemic) [Example 165, rac-((R)-2-(((2R,3S,4R,5R)-5-(4-(cyclopentylamino)-6-((R)-2-hydroxypropoxy)-1H-pyrazolo[3,4-d]pyrimidin-1-yl)-3,4-dihydroxytetrahydrofuran-2-yl)methoxy)-1-hydroxypropan-2-yl)phosphonic acid]
6 | 6.00 to 7.00 | O=C(O)c1ccc(C[C@](CO)(OC[C@H]2O[C@@H](n3ncc4c(NC5CCCC5)nc(Cl)nc43)[C@H](O)[C@@H]2O)P(=O)(O)O)cc1 (racemic) [Example 188, rac-4-((R)-2-(((2S,3R,4S,5S)-5-(6-chloro-4-(cyclopentylamino)-1H-pyrazolo[3,4-d]pyrimidin-1-yl)-3,4-dihydroxytetrahydrofuran-2-yl)methoxy)-3-hydroxy-2-phosphonopropyl)benzoic acid]
7 | ≥ 7.00 | O=P(O)(O)[C@@](CO)(COCC1CC1)OC[C@H]1O[C@@H](n2ncc3c(NC4CCCC4)nc(Cl)nc32)[C@H](O)[C@@H]1O (racemic) [Example 171, rac-((R)-2-(((2S,3R,4S,5S)-5-(6-chloro-4-(cyclopentylamino)-1H-pyrazolo[3,4-d]pyrimidin-1-yl)-3,4-dihydroxytetrahydrofuran-2-yl)methoxy)-1-(cyclopropylmethoxy)-3-hydroxypropan-2-yl)phosphonic acid]
8 | ≥ 7.00 | O=P(O)(O)C(CO)(CC1COC1)OC[C@H]1O[C@@H](n2ncc3c(NC4CCCC4)nc(Cl)nc32)[C@H](O)[C@@H]1O (mixture of isomers) [Example 167, rac-(2-(((2R,3S,4R,5R)-5-(6-chloro-4-(cyclopentylamino)-1H-pyrazolo[3,4-d]pyrimidin-1-yl)-3,4-dihydroxytetrahydrofuran-2-yl)methoxy)-1-hydroxy-3-(oxetan-3-yl)propan-2-yl)phosphonic acid]

More lines, now with the values behind:

Row | SMILES | pIC50
9 | O=P(O)(O)CS(=O)(=O)C[C@H]1O[C@@H](n2nnc3c(NCc4ccccc4Cl)cc(Cl)nc32)[C@H](O)[C@@H]1O [Example 27, (((((2S,3S,4R,5R)-5-(5-chloro-7-((2-chlorobenzyl)amino)-3H-[1,2,3]triazolo[4,5-b]pyridin-3-yl)-3,4-dihydroxytetrahydrofuran-2-yl)methyl)sulfonyl)methyl)phosphonic acid] | ≥ 7.00
10 | C[C@H](O)[C@@H](OC[C@H]1O[C@@H](n2ncc3c(NC4CCCC4)nc(Cl)nc32)[C@H](O)[C@@H]1O)P(=O)(O)O [Example 11, ((1S,2S)-1-(((2R,3S,4R,5R)-5-(6-chloro-4-(cyclopentylamino)-1H-pyrazolo[3,4-d]pyrimidin-1-yl)-3,4-dihydroxytetrahydrofuran-2-yl)methoxy)-2-hydroxypropyl)phosphonic acid] | ≥ 7.00
11 | O=P(O)(O)C(CO)(Cc1ccccn1)OC[C@H]1O[C@@H](n2ncc3c(NC4CCCC4)nc(Cl)nc32)[C@H](O)[C@@H]1O (stereo partly drawn) [Example 93, (2-(((2R,3S,4R,5R)-5-(6-chloro-4-(cyclopentylamino)-1H-pyrazolo[3,4-d]pyrimidin-1-yl)-3,4-dihydroxytetrahydrofuran-2-yl)methoxy)-1-hydroxy-3-(pyridin-2-yl)propan-2-yl)phosphonic acid] | ≥ 7.00
12 | O=P(O)(O)C(CO)(CO)OC[C@H]1O[C@@H](n2ncc3c(NCC4CC4)nc(Cl)nc32)[C@H](O)[C@@H]1O [Example 132, (2-(((2R,3S,4R,5R)-5-(6-chloro-4-((cyclopropylmethyl)amino)-1H-pyrazolo[3,4-d]pyrimidin-1-yl)-3,4-dihydroxytetrahydrofuran-2-yl)methoxy)-1,3-dihydroxypropan-2-yl)phosphonic acid] | ≥ 7.00
13 | O=P(O)(O)C(CO)OC[C@H]1O[C@@H](n2ccc3c(NC4CCCC4)nc(Cl)nc32)[C@H](O)[C@@H]1O (stereo partly drawn) [Example 117, (1-(((2R,3S,4R,5R)-5-(2-chloro-4-(cyclopentylamino)-7H-pyrrolo[2,3-d]pyrimidin-7-yl)-3,4-dihydroxytetrahydrofuran-2-yl)methoxy)-2-hydroxyethyl)phosphonic acid] | ≥ 7.00
14 | COCC(OC[C@H]1O[C@@H](n2nnc3c(NC4CCCC4)nc(Cl)nc32)[C@H](O)[C@@H]1O)P(=O)(O)O (stereo partly drawn) [Example 142, (1-(((2R,3S,4R,5R)-5-(5-chloro-7-(cyclopentylamino)-3H-[1,2,3]triazolo[4,5-d]pyrimidin-3-yl)-3,4-dihydroxytetrahydrofuran-2-yl)methoxy)-2-methoxyethyl)phosphonic acid] | ≥ 7.00
15 | CC(CO)(OC[C@H]1O[C@@H](n2cnc3c(NC4CCCC4)nc(Cl)nc32)[C@H](O)[C@@H]1O)P(=O)(O)O (stereo partly drawn) [Example 76, (2-(((2R,3S,4R,5R)-5-(2-chloro-6-(cyclopentylamino)-9H-purin-9-yl)-3,4-dihydroxytetrahydrofuran-2-yl)methoxy)-1-hydroxypropan-2-yl)phosphonic acid] | ≥ 7.00
16 | C[C@@](CO)(OC[C@H]1O[C@@H](n2ncc3c(NC4CCCC4)nc(CO)nc32)[C@H](O)[C@@H]1O)P(=O)(O)O [Example 128, ((R)-2-(((2R,3S,4R,5R)-5-(4-(cyclopentylamino)-6-(hydroxymethyl)-1H-pyrazolo[3,4-d]pyrimidin-1-yl)-3,4-dihydroxytetrahydrofuran-2-yl)methoxy)-1-hydroxypropan-2-yl)phosphonic acid] | ≥ 7.00
17 | CC(CO)(OC[C@H]1O[C@@H](n2ccc3c(NC4CCCC4)nc(Cl)nc32)[C@H](O)[C@@H]1O)P(=O)(O)O (stereo partly drawn) [Example 91, (2-(((2R,3S,4R,5R)-5-(2-Chloro-4-(cyclopentylamino)-7H-pyrrolo[2,3-d]pyrimidin-7-yl)-3,4-dihydroxytetrahydrofuran-2-yl)methoxy)-1-hydroxypropan-2-yl)phosphonic acid] | ≥ 7.00
18 | COC[C@](C)(OC[C@H]1O[C@@H](n2nnc3c(NC4CCCC4)cc(Cl)nc32)[C@H](O)[C@@H]1O)P(=O)(O)O [Example 148, ((R)-2-(((2R,3S,4R,5R)-5-(5-chloro-7-(cyclopentylamino)-3H-[1,2,3]triazolo[4,5-b]pyridin-3-yl)-3,4-dihydroxytetrahydrofuran-2-yl)methoxy)-1-methoxypropan-2-yl)phosphonic acid] | ≥ 7.00
19 | O=P(O)(O)CP(=O)(O)OC[C@H]1O[C@@H](n2nnc3c(NC4CCCC4)cc(Cl)nc32)[C@H](O)[C@@H]1O [Example 53, (((((2R,3S,4R,5R)-5-(5-chloro-7-(cyclopentylamino)-3H-[1,2,3]triazolo[4,5-b]pyridin-3-yl)-3,4-dihydroxytetrahydrofuran-2-yl)methoxy)(hydroxy)phosphoryl)methyl)phosphonic acid] | ≥ 7.00
20 | CN(C)CC(C)(OC[C@H]1O[C@@H](n2ncc3c(NC4CCCC4)nc(Cl)nc32)[C@H](O)[C@@H]1O)P(=O)(O)O (stereo partly drawn) [Example 81, (2-(((2R,3S,4R,5R)-5-(6-chloro-4-(cyclopentylamino)-1H-pyrazolo[3,4-d]pyrimidin-1-yl)-3,4-dihydroxytetrahydrofuran-2-yl)methoxy)-1-(dimethylamino)propan-2-yl)phosphonic acid] | < 6.00
21 | COCC(C)(OC[C@H]1O[C@@H](n2ncc3c(NC4CCCC4)cc(Cl)nc32)[C@H](O)[C@@H]1O)P(=O)(O)O (stereo partly drawn) [Example 111, (2-(((2R,3S,4R,5R)-5-(6-chloro-4-(cyclopentylamino)-1H-pyrazolo[3,4-b]pyridin-1-yl)-3,4-dihydroxytetrahydrofuran-2-yl)methoxy)-1-methoxypropan-2-yl)phosphonic acid] | ≥ 7.00
22 | CC(CO)(OC[C@H]1O[C@@H](n2nnc3c(N[C@@H]4CCc5ccccc54)nc(Cl)nc32)[C@H](O)[C@@H]1O)P(=O)(O)O (stereo partly drawn) [Example 78, (2-(((2R,3S,4R,5R)-5-(5-chloro-7-(((R)-2,3-dihydro-1H-inden-1-yl)amino)-3H-[1,2,3]triazolo[4,5-d]pyrimidin-3-yl)-3,4-dihydroxytetrahydrofuran-2-yl)methoxy)-1-hydroxypropan-2-yl)phosphonic acid] | ≥ 7.00
